Values quoted from earlier work, collected in EP4759315A1, “DRUG PREPARED FROM ORGANIC GERMANIUM COMPOUND AND GLUCOSAMINE COMPOUND, AND USE THEREOF” (Eion International Ltd., priority 2023, dated 2025).

Legend:
[1] = in vivo

O=C(O)C[CH2][Ge](=[O])[O][Ge](=[O])[CH2]CC(=O)O [Ge-132, bis(carboxyethyl)germanium sesquioxide]
No-Observable-Adverse-Effect Level (NOAEL) [1]: 2000 mg/kg body weight/day
pH of the solution (at the concentration of 1.28 g/100 ml in water): 3.06-3.12
solubility in water (water): 1.28 g/100 ml
